Here are results for 13 compounds from patent publication US8143408B2, “N-(8-heteroaryltetrahydronaphtalene-2yl) or N-(5-heteroarylchromane-3-yl) carboxamide derivatives for the treatment of pain” (AstraZeneca AB, priority 2007, dated 2012).

T1 sequence (Q15858 whole entry): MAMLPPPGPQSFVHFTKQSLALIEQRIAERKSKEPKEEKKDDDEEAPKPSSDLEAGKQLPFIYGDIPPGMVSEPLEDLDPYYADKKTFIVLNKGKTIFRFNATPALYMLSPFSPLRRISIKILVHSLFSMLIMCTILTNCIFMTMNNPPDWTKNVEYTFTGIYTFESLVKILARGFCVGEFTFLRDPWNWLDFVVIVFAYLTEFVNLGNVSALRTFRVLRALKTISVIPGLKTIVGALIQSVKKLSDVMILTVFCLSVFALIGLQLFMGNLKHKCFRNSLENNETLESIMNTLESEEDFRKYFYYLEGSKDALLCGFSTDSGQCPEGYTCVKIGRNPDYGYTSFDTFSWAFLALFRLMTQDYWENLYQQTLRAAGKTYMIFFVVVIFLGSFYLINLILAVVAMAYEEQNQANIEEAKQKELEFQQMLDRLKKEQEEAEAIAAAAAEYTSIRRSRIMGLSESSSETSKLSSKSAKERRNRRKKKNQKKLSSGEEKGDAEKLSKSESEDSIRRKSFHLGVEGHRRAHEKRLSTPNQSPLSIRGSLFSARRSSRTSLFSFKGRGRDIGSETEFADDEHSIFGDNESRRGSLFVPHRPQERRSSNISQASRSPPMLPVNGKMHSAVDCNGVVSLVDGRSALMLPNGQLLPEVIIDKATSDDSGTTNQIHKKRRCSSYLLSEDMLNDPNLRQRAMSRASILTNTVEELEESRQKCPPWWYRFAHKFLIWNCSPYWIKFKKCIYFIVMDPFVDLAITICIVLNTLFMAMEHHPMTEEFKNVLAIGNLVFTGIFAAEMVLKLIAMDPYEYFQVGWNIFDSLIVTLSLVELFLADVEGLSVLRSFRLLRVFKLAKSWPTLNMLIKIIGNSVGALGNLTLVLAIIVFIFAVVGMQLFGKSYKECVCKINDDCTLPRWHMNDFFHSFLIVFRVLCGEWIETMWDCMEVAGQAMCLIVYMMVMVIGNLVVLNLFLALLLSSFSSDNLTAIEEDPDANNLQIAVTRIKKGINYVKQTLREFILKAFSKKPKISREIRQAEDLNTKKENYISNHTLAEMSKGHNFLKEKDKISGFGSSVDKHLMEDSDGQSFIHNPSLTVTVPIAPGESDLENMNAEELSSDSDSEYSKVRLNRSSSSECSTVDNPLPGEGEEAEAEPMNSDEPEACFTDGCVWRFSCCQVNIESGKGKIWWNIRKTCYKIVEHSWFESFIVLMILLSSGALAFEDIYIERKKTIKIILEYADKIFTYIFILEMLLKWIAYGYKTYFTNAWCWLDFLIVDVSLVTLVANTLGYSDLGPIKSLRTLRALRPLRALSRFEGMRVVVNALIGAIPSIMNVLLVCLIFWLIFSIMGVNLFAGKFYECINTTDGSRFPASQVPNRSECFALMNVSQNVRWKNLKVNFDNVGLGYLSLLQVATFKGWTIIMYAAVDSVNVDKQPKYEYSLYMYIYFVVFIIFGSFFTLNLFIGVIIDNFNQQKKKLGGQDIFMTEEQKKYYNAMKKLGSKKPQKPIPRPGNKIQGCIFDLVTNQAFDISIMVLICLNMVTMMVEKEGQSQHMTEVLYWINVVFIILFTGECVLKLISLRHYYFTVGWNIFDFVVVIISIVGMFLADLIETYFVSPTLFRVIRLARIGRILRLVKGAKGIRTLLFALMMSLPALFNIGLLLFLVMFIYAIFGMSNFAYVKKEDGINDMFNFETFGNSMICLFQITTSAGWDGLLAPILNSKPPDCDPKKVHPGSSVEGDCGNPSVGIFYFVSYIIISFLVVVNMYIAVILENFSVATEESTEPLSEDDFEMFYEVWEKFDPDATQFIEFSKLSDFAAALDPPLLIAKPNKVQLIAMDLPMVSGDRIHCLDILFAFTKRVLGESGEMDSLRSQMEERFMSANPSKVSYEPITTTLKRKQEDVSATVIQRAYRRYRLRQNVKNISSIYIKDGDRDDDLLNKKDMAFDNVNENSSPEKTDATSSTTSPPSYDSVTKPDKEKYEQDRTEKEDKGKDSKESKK

This assay concerns the target T1, Nav1.7 voltage-gated sodium channel (Homo sapiens, UniProt Q15858).
T1 construct: Gene(s) encoding the full-length protein of the voltage-gated sodium channel of interest are cloned and expressed; expressed in transfected cells
Put plainly: Whole-cell voltage clamp electrophysiology assay. It counts as cell-based. Particulars: cells stably expressing the voltage-gated sodium channel of interest. The essentials:
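Cells expressing full-length channel, exposed to drug by integrated pipetting on automated patch-clamp platforms or by microperfusion in conventional whole-cell patch clamp. Channels activated by a voltage protocol depolarising from a defined holding potential; buffers per platform manufacturer.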
Turning to `O=C(N[C@@H]1COc2cccc(-c3ccncc3)c2C1)c1ccc(OCc2cccnc2)nc1` [Example 119, N-[(3S)-5-pyridin-4-yl-3,4-dihydro-2H-chromen-3-yl]-6-(pyridin-3-ylmethoxy)nicotinamide], the IC50 was 2000 nM.

On to `O=C(N[C@@H]1COc2cccc(-c3ccncc3)c2C1)c1ccc(S(=O)(=O)C2CCCC2)nc1` [Example 117, 6-(cyclopentylsulfonyl)-N-[(3S)-5-pyridin-4-yl-3,4-dihydro-2H-chromen-3-yl]nicotinamide], for which half-maximal inhibition (IC50) was put at 501 nM.

As for `CCCCOc1ccc(C(=O)N[C@@H]2COc3cccc(-c4ccncc4)c3C2)cc1` [Example 2, 4-Butoxy-N-[(3S)-5-pyridin-4-yl-3,4-dihydro-2H-chromen-3-yl]benzamide], the midpoint of inhibition, the IC50, lay at 126 nM.

On to `Cc1ncc(-c2cccc3c2C[C@H](NC(=O)c2ccc(C(=O)NCCC(F)(F)F)nc2)CO3)cn1` [Example 183, N^5-[(3S)-5-(2-methylpyrimidin-5-yl)-3,4-dihydro-2H-chromen-3-yl]-N^2-(3,3,3-trifluoropropyl)pyridine-2,5-dicarboxamide], for which the concentration for half-maximal inhibition (IC50) is 316 nM.

In turn, `O=C(N[C@@H]1COc2cccc(-c3ccc(F)nc3)c2C1)c1ccc(OCCC(F)(F)F)nc1` [Example 69, N-[(3S)-5-(6-fluoropyridin-3-yl)-3,4-dihydro-2H-chromen-3-yl]-6-(3,3,3-trifluoropropoxy)nicotinamide] gave a 50% inhibitory concentration (IC50) of 79.4 nM.

For `COc1ncc(-c2cccc3c2C[C@H](NC(=O)c2ccc(C(=O)NCCC(F)(F)F)nc2)CO3)cn1` [Example 125, N^5-[(3S)-5-(2-methoxypyrimidin-5-yl)-3,4-dihydro-2H-chromen-3-yl]-N^2-(3,3,3-trifluoropropyl)pyridine-2,5-dicarboxamide], 316 nM corresponded to half-maximal inhibition (IC50).

The compound `O=C(N[C@@H]1COc2cccc(-c3ccnnc3)c2C1)c1ccc(OCC(F)(F)F)nc1` [Example 80, N-[(3S)-5-pyridazin-4-yl-3,4-dihydro-2H-chromen-3-yl]-6-(2,2,2-trifluoroethoxy)nicotinamide] gave a concentration for half-maximal inhibition (IC50) of 2510 nM.

In turn, `Cn1ccnc1COc1ccc(C(=O)N[C@@H]2COc3cccc(-c4ccncc4)c3C2)cn1` [Example 116, 6-[(1-methyl-1H-imidazol-2-yl)methoxy]-N-[(3S)-5-pyridin-4-yl-3,4-dihydro-2H-chromen-3-yl]nicotinamide] gave an IC50 of 2000 nM.

`COc1ncc(-c2cccc3c2C[C@H](NC(=O)c2ccc(C(=O)NC4CCC(F)(F)CC4)nc2)CO3)cn1` [Example 170, N^2-(4,4-difluorocyclohexyl)-N^5-[(3S)-5-(2-methoxypyrimidin-5-yl)-3,4-dihydro-2H-chromen-3-yl]pyridine-2,5-dicarboxamide] showed a half-maximal inhibitory concentration (IC50) of 251 nM.

As for `COc1ccc(-c2cccc3c2C[C@H](NC(=O)c2cnc(OC)cn2)CO3)cn1` [Example 49, 5-methoxy-N-[(3S)-5-(6-methoxypyridin-3-yl)-3,4-dihydro-2H-chromen-3-yl]pyrazine-2-carboxamide], it took 1260 nM to reach half-maximal inhibition (IC50).

`O=C(N[C@@H]1CCc2cccc(-c3ccnnc3)c2C1)c1ccc(OCCC(F)(F)F)nc1` [Example 75, N-[(2R)-8-pyridazin-4-yl-1,2,3,4-tetrahydronaphthalen-2-yl]-6-(3,3,3-trifluoropropoxy)nicotinamide] gave an IC50 of 631 nM.

The compound `COc1ncc(-c2cccc3c2C[C@H](NC(=O)c2ccc(OCCCF)nc2)CO3)cn1` [Example 100, 6-(3-fluoropropoxy)-N-[(3S)-5-(2-methoxypyrimidin-5-yl)-3,4-dihydro-2H-chromen-3-yl]nicotinamide] gave an IC50 of 398 nM.

In turn, `COc1ncc(-c2cccc3c2C[C@H](NC(=O)c2ccc(C(=O)NCCC(C)C)nc2)CO3)cn1` [Example 111, N^5-[(3S)-5-(2-methoxypyrimidin-5-yl)-3,4-dihydro-2H-chromen-3-yl]-N^2-(3-methylbutyl)pyridine-2,5-dicarboxamide] had an IC50 of 251 nM.
